# Laboratory results: ChEMBL document CHEMBL4507320, “Data for DCP probe NVS-MALT1” (2021)
# What was measured:
# [1] = test system: Tyrosine-protein kinase ABL1 (Homo sapiens), P00519 [F317I]; details: Compound concentration 1000.0 nM
# [2] = test system: Tyrosine-protein kinase ABL1 (Homo sapiens), P00519 [F317L]; details: Compound concentration 1000.0 nM
# [3] = target: Tyrosine-protein kinase ABL2 (Homo sapiens) (UniProt P42684); details: Compound concentration 1000.0 nM
# [4] = target: Activin receptor type-2A (Homo sapiens) (UniProt P27037); details: Compound concentration 1000.0 nM
# [5] = test system: ALK tyrosine kinase receptor (Homo sapiens), Q9UM73 [L1196M]; details: Compound concentration 1000.0 nM
# [6] = target: Aurora kinase C (Homo sapiens) (UniProt Q9UQB9); details: Compound concentration 1000.0 nM
# [7] = target: Tyrosine-protein kinase Blk (Homo sapiens) (UniProt P51451); details: Compound concentration 1000.0 nM
# [8] = target: Dual specificity protein kinase CLK4 (Homo sapiens) (UniProt Q9HAZ1); details: Compound concentration 1000.0 nM
# [9] = target: Casein kinase I isoform alpha-like (Homo sapiens) (UniProt Q8N752); details: Compound concentration 1000.0 nM
# [10] = target: Casein kinase I isoform delta (Homo sapiens) (UniProt P48730); details: Compound concentration 1000.0 nM
# [11] = target: Serine/threonine-protein kinase 17B (Homo sapiens) (UniProt O94768); details: Compound concentration 1000.0 nM
# [12] = target: Ephrin type-A receptor 2 (Homo sapiens) (UniProt P29317); details: Compound concentration 1000.0 nM
# [13] = target: Fibroblast growth factor receptor 2 (Homo sapiens) (UniProt P21802); details: Compound concentration 1000.0 nM
# Fibroblast growth factor receptor 2 (Homo sapiens), sequence (P21802 22-821 limits assumed): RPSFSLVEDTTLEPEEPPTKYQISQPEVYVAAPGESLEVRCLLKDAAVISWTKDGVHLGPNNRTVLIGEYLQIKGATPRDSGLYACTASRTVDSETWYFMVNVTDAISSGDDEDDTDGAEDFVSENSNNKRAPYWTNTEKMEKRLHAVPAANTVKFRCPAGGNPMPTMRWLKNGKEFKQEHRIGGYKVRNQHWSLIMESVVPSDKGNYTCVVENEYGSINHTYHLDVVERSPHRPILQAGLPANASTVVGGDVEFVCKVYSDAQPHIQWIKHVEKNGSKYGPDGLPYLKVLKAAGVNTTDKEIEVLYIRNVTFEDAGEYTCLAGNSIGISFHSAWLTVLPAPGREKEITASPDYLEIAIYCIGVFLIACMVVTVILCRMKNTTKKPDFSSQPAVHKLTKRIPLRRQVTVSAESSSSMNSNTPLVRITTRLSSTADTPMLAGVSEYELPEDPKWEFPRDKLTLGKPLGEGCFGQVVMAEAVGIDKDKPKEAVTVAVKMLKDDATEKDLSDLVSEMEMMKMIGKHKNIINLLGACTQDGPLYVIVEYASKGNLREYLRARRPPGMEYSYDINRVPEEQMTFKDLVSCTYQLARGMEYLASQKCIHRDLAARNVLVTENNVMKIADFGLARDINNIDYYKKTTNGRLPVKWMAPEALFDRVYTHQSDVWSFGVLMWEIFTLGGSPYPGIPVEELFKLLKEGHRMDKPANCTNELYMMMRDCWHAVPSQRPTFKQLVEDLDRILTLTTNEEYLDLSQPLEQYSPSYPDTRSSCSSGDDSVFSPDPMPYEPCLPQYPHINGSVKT
# [14] = test system: Receptor-type tyrosine-protein kinase FLT3 (Homo sapiens), P36888 [K663Q]; details: Compound concentration 1000.0 nM
# [15] = test system: Receptor-type tyrosine-protein kinase FLT3 (Homo sapiens), P36888 [R834Q]; details: Compound concentration 1000.0 nM
# [16] = target: Tyrosine-protein kinase FRK (Homo sapiens) (UniProt P42685); details: Compound concentration 1000.0 nM
# Tyrosine-protein kinase FRK (Homo sapiens), sequence (P42685 whole entry): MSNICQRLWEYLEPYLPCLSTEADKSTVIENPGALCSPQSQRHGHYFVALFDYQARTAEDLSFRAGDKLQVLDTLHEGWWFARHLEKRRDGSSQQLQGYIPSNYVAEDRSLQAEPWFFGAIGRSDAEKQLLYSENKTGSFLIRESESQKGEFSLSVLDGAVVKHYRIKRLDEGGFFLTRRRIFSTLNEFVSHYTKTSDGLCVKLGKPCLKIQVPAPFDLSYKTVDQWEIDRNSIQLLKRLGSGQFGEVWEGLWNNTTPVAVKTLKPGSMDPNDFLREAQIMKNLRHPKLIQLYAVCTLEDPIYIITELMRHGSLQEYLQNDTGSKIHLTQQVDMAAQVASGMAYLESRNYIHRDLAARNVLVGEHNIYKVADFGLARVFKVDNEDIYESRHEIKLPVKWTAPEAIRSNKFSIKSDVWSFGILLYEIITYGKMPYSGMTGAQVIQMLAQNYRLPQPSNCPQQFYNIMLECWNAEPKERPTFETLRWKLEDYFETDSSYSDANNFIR
# [17] = target: Glycogen synthase kinase-3 alpha (Homo sapiens) (UniProt P49840); details: Compound concentration 1000.0 nM
# [18] = target: Homeodomain-interacting protein kinase 1 (Homo sapiens) (UniProt Q86Z02); details: Compound concentration 1000.0 nM
# [19] = target: Hormonally up-regulated neu tumor-associated kinase (Homo sapiens) (UniProt P57058); details: Compound concentration 1000.0 nM
# [20] = target: Insulin receptor-related protein (Homo sapiens) (UniProt P14616); details: Compound concentration 1000.0 nM
# [21] = target: Mast/stem cell growth factor receptor Kit (Homo sapiens) (UniProt P10721); details: Compound concentration 1000.0 nM
# [22] = test system: Mast/stem cell growth factor receptor Kit (Homo sapiens), P10721 [V559D,V654A]; details: Compound concentration 1000.0 nM
# [23] = target: Serine/threonine-protein kinase LATS2 (Homo sapiens) (UniProt Q9NRM7); details: Compound concentration 1000.0 nM
# Serine/threonine-protein kinase LATS2 (Homo sapiens), sequence (Q9NRM7 whole entry): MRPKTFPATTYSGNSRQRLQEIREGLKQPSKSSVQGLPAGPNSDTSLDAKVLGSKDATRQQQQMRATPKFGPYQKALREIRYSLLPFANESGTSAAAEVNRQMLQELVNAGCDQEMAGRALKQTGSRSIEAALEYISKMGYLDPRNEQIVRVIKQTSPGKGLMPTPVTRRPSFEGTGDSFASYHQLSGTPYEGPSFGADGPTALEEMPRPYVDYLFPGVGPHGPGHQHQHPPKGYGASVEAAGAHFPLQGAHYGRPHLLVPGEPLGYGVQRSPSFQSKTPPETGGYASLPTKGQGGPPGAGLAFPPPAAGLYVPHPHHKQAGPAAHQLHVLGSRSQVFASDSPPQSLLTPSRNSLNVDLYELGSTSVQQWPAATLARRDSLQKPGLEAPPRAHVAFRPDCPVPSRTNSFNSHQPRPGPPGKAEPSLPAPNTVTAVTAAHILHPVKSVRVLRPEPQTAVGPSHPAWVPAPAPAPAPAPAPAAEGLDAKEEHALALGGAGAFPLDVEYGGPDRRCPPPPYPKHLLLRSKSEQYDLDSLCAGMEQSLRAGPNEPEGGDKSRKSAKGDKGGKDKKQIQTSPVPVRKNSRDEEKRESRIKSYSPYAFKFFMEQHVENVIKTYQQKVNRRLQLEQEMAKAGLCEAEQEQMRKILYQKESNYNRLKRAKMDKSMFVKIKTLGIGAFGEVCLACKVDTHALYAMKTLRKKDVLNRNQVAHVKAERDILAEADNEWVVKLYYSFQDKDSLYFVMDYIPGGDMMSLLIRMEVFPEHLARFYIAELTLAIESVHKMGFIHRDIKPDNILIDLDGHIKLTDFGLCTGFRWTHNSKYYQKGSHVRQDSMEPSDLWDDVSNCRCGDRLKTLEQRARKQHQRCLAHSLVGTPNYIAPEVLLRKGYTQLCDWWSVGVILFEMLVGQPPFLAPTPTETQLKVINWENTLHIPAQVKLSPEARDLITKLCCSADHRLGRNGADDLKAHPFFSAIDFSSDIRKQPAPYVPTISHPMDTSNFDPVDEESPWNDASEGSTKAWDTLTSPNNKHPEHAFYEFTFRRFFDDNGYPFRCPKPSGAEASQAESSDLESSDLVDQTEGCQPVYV
# [24] = target: Mitogen-activated protein kinase kinase kinase 2 (Homo sapiens) (UniProt Q9Y2U5); details: Compound concentration 1000.0 nM
# [25] = target: Dual specificity mitogen-activated protein kinase kinase 1 (Homo sapiens) (UniProt Q02750); details: Compound concentration 1000.0 nM
# [26] = target: Maternal embryonic leucine zipper kinase (Homo sapiens) (UniProt Q14680); details: Compound concentration 1000.0 nM
# Maternal embryonic leucine zipper kinase (Homo sapiens), sequence (Q14680 whole entry, looked up): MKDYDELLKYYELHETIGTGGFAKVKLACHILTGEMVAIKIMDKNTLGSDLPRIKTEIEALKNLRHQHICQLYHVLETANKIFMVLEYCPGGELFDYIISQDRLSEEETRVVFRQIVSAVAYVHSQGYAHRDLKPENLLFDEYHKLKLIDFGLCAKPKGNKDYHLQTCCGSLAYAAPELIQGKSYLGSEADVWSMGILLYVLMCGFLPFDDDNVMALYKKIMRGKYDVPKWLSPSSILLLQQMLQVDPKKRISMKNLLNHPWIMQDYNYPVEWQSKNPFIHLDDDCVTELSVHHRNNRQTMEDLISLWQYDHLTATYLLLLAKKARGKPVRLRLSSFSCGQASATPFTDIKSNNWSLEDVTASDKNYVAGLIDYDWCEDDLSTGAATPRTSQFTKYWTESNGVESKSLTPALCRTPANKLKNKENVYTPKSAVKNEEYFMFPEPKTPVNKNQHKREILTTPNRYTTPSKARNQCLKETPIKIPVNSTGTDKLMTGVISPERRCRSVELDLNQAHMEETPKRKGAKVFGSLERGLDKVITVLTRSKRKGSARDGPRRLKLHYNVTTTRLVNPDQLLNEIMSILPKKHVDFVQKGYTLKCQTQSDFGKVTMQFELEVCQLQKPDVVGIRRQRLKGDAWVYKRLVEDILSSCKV
# [27] = target: Hepatocyte growth factor receptor (Homo sapiens) (UniProt P08581); details: Compound concentration 1000.0 nM
# [28] = test system: Hepatocyte growth factor receptor (Homo sapiens), P08581 [Y1235D]; details: Compound concentration 1000.0 nM
# [29] = target: Mitogen-activated protein kinase kinase kinase 9 (Homo sapiens) (UniProt P80192); details: Compound concentration 1000.0 nM
# [30] = target: Serine/threonine-protein kinase 26 (Homo sapiens) (UniProt Q9P289); details: Compound concentration 1000.0 nM
# [31] = target: Myosin light chain kinase family member 4 (Homo sapiens) (UniProt Q86YV6); details: Compound concentration 1000.0 nM
# [32] = target: Phosphatidylinositol 4,5-bisphosphate 3-kinase catalytic subunit beta isoform (Homo sapiens) (UniProt P42338); details: Compound concentration 1000.0 nM
# [33] = target: cAMP-dependent protein kinase catalytic subunit beta (Homo sapiens) (UniProt P22694); details: Compound concentration 1000.0 nM
# [34] = target: Protein kinase C theta type (Homo sapiens) (UniProt Q04759); details: Compound concentration 1000.0 nM
# [35] = target: cGMP-dependent protein kinase 2 (Homo sapiens) (UniProt Q13237); details: Compound concentration 1000.0 nM
# cGMP-dependent protein kinase 2 (Homo sapiens), sequence (Q13237 whole entry): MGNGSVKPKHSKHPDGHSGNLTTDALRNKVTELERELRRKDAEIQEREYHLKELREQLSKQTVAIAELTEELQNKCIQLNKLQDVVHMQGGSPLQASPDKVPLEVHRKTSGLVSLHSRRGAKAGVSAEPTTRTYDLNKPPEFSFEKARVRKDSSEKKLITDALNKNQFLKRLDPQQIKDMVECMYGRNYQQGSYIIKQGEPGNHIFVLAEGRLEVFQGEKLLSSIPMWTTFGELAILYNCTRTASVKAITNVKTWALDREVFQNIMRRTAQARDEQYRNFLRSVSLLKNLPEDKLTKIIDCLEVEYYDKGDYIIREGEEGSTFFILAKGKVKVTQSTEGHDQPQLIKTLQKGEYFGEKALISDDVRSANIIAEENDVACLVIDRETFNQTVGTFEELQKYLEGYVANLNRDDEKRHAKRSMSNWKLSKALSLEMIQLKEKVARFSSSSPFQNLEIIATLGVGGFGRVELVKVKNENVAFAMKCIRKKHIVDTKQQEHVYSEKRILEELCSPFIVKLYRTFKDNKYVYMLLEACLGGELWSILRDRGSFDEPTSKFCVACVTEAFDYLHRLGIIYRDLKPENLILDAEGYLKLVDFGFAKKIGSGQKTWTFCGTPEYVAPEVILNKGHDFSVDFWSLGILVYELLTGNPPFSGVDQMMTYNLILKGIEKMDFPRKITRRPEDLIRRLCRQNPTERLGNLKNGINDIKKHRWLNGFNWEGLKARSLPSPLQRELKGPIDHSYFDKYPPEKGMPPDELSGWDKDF
# [36] = target: Protein-tyrosine kinase 2-beta (Homo sapiens) (UniProt Q14289); details: Compound concentration 1000.0 nM
# [37] = target: Rho-associated protein kinase 1 (Homo sapiens) (UniProt Q13464); details: Compound concentration 1000.0 nM
# [38] = target: Ribosomal protein S6 kinase alpha-1 (Homo sapiens) (UniProt Q15418); details: Compound concentration 1000.0 nM
# [39] = target: Serine/threonine-protein kinase SIK1 (Homo sapiens) (UniProt P57059); details: Compound concentration 1000.0 nM
# [40] = target: Serine/threonine-protein kinase SIK2 (Homo sapiens) (UniProt Q9H0K1); details: Compound concentration 1000.0 nM
# [41] = target: Serine/threonine-protein kinase TAO3 (Homo sapiens) (UniProt Q9H2K8); details: Compound concentration 1000.0 nM
# [42] = target: Serine/threonine-protein kinase 32A (Homo sapiens) (UniProt Q8WU08); details: Compound concentration 1000.0 nM
# [43] = target: Alpha-2A adrenergic receptor (Homo sapiens) (UniProt P08913); details: Compound concentration 10.0 uM
# [44] = target: GABA-A receptor; anion channel (Rattus norvegicus) (UniProt O09028+P15431+P18506+P18508+P19969+P20236+P23574+P23576+P28471+P28473+P30191+P62813+P63079+P63138+Q91ZM7+Q9ES14); details: Compound concentration 10.0 uM
# Tyrosine-protein kinase ABL1 (Homo sapiens), P00519 [F317I], sequence (P00519 whole entry F317I): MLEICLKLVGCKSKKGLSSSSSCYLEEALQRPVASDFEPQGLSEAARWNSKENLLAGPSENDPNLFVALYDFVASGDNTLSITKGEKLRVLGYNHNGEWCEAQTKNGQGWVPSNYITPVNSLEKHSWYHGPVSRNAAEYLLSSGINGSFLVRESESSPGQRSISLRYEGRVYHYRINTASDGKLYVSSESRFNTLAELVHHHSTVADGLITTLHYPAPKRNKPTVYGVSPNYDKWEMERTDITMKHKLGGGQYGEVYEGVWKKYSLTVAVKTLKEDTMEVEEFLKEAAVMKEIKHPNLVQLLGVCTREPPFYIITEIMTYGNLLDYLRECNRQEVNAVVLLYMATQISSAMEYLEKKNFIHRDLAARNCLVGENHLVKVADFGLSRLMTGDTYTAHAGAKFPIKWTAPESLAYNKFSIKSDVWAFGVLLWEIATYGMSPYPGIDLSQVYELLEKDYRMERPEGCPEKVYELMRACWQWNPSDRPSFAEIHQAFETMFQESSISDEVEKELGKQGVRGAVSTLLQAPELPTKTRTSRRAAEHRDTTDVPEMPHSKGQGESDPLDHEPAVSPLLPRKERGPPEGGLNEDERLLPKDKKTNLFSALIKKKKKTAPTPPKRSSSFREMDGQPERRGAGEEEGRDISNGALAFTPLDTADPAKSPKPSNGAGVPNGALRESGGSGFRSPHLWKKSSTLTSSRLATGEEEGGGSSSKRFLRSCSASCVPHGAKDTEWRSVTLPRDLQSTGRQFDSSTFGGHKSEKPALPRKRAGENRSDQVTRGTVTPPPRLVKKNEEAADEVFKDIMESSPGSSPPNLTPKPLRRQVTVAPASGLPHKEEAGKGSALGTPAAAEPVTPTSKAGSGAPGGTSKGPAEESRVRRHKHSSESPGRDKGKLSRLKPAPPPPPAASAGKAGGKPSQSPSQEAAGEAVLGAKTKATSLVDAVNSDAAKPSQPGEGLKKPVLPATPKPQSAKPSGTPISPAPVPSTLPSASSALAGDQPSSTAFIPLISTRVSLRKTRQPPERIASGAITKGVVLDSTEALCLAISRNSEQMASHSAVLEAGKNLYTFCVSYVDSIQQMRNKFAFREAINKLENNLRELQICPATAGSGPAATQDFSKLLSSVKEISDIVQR
# Tyrosine-protein kinase ABL1 (Homo sapiens), P00519 [F317L], sequence (P00519 whole entry F317L): as the sequence (P00519 whole entry F317I) above, with I317L counted along it
smiles,measurement,setting,value
CO[C@@H](C)c1c(Nc2ccc([C@@H](N(C)C(=O)C3CCS(=O)(=O)CC3)C(F)(F)F)cc2)cnc2cc(Cl)nn12 [NVS-MALT1-C],residual activity,[1],100%
same,residual activity,[2],89%
same,residual activity,[3],84%
same,residual activity,[4],100%
same,residual activity,[5],94%
same,residual activity,[6],85%
same,residual activity,[7],56%
same,residual activity,[8],92%
same,residual activity,[9],84%
same,residual activity,[10],100%
same,residual activity,[11],98%
same,residual activity,[12],83%
same,residual activity,[13],84%
same,residual activity,[14],94%
same,residual activity,[15],100%
same,residual activity,[16],91%
same,residual activity,[17],94%
same,residual activity,[18],56%
same,residual activity,[19],100%
same,residual activity,[20],89%
same,residual activity,[21],100%
same,residual activity,[22],88%
same,residual activity,[23],88%
same,residual activity,[24],100%
same,residual activity,[25],100%
same,residual activity,[26],52%
same,residual activity,[27],85%
same,residual activity,[28],85%
same,residual activity,[29],81%
same,residual activity,[30],100%
same,residual activity,[31],83%
same,residual activity,[32],72%
same,residual activity,[33],89%
same,residual activity,[34],98%
same,residual activity,[35],100%
same,residual activity,[36],100%
same,residual activity,[37],100%
same,residual activity,[38],65%
same,residual activity,[39],85%
same,residual activity,[40],92%
same,residual activity,[41],100%
same,residual activity,[42],100%
same,inhibition,[43],5.1%
same,inhibition,[44],20.8%
CO[C@@H](C)c1c(Nc2ccc([C@H](N(C)C(=O)C3CCS(=O)(=O)CC3)C(F)(F)F)cc2)cnc2cc(Cl)nn12 [NVS-MALT1],residual activity,[1],100%
same,residual activity,[2],89%
same,residual activity,[3],85%
same,residual activity,[4],93%
same,residual activity,[5],100%
same,residual activity,[6],77%
same,residual activity,[7],87%
same,residual activity,[8],94%
same,residual activity,[9],65%
same,residual activity,[10],88%
same,residual activity,[11],99%
same,residual activity,[12],100%
same,residual activity,[13],91%
same,residual activity,[14],100%
same,residual activity,[15],100%
same,residual activity,[16],80%
same,residual activity,[17],86%
same,residual activity,[18],40%
same,residual activity,[19],100%
same,residual activity,[20],94%
same,residual activity,[21],100%
same,residual activity,[22],92%
same,residual activity,[23],100%
same,residual activity,[24],100%
same,residual activity,[25],100%
same,residual activity,[26],59%
same,residual activity,[27],100%
same,residual activity,[28],100%
same,residual activity,[29],100%
same,residual activity,[30],100%
same,residual activity,[31],86%
same,residual activity,[32],65%
same,residual activity,[33],81%
same,residual activity,[34],93%
same,residual activity,[35],100%
same,residual activity,[36],83%
same,residual activity,[37],100%
same,residual activity,[38],71%
same,residual activity,[39],87%
same,residual activity,[40],87%
same,residual activity,[41],100%
same,residual activity,[42],100%
same,inhibition,[43],14.6%
same,inhibition,[44],21.3%
